{"source": "patent US20100124538A1", "about": "“TOPICAL APPLICATION OF FLUOCINOLONE ACETONIDE FOR DEPIGMENTATION OF THE SKIN” (GALDERMA RESEARCH & DEVELOPMENT, priority 2007, published 2010)", "key": {"melasma [1]": {"test_system": "melasma", "settings": "cited from earlier work"}, "tail of SKH:HR2 mice [2]": {"test_system": "tail of SKH:HR2 mice", "assay": "Clinical pigmentation score on the tail of SKH:HR2 mice after topical application", "type": "in vivo", "settings": "for depigmenting activity (clinical pigmentation score): 4 weeks", "procedure": "(§1) The depigmenting activity of fluocinolone acetonide and of hydrocortisone was evaluated on the tail of female SKH:HR2 mice that were 6 weeks old at the beginning of the study. The products were applied topically (20 μl of product to the tail), 5 days a week for 4 weeks. Each group contains 5 animals:\nClinical observations: once a week the pigmentation is scored on a scale ranging from 0 (base pigmentation) to −4 (total depigmentation).\nThe depigmenting activities of three corticosteroids, fluocinolone acetonide, desonide and β-methasone valerate, were evaluated on the tail of female SKH:HR2 mice that were 8 weeks old at the beginning of the study. The products were applied topically (20 μl of product to the tail), 5 days a week for 5 weeks. Each group contains 6 animals.\nClinical observations: once a week, the pigmentation is scored on a scale ranging from 0 (base pigmentation) to −4 (total depigmentation).\nThe depigmenting activity of fluocinolone acetonide and of desonide was evaluated on the tail of female SKH:HR2 mice that were 8 weeks old at the beginning of the study. The products were applied topically (20 μl of product to the tail), 5 days a week for 4 weeks."}, "tail of SKH:HR2 mice [3]": {"test_system": "tail of SKH:HR2 mice", "assay": "Fontana-Masson-positive surface area in living epidermis of the tail (histology, image analysis)", "type": "in vivo", "settings": "4 weeks", "procedure": "as §1\nA tail skin sample is taken at the end of the study and fixed with formol in order to carry out a histological analysis.\nThe epidermal surface area taken up by melanin is measured by image analysis on histological sections stained by the Fontana-Masson technique, which makes it possible to reveal the pigments. For each animal, the Fontana-Masson-positive surface area is measured by image analysis on five fields of interfollicular epidermis and weighted with respect to the length of corresponding epidermis in order to avoid any possible bias due to hyperplasia or atrophy of the epidermis. Since the horny layer is partially lost during the treatment of the samples, the measurement is carried out only in the living layers of the epidermis."}, "melasma [4]": {"test_system": "melasma", "settings": "monotherapy; cited from earlier work"}}}
{"smiles": "CCC(=O)O[C@]1(C(=O)CCl)[C@@H](C)C[C@H]2[C@@H]3CCC4=CC(=O)C=C[C@]4(C)[C@@]3(F)[C@@H](O)C[C@@]21C", "note": "[clobetasol propionate]", "values": [{"measurement": "cases in which treatment had to be stopped due to local atrophy and telangiectasiae", "setting": "melasma [1]; 0.05% topical, stopped after 4 weeks", "result": 30, "unit": "%"}, {"measurement": "patients with lightening in whom the melasma reappeared at the same sites", "setting": "melasma [1]; 2 to 3 weeks after the treatment had been stopped", "result": 57, "unit": "%"}]}
{"smiles": "CC1(C)O[C@@H]2C[C@H]3[C@@H]4C[C@H](F)C5=CC(=O)C=C[C@]5(C)[C@@]4(F)[C@@H](O)C[C@]3(C)[C@]2(C(=O)CO)O1", "note": "[fluocinolone acetonide]", "values": [{"measurement": "depigmenting activity (clinical pigmentation score)", "setting": "tail of SKH:HR2 mice [2]; Example 1, 0.0005% topical", "result": "remains substantial"}, {"measurement": "depigmentation of the tail (clinical pigmentation score)", "setting": "tail of SKH:HR2 mice [2]; Example 1, 0.01% topical, 5 days a week, after 4 weeks, compared with hydrocortisone at same concentration", "result": "marked depigmentation"}, {"measurement": "depigmentation observed (clinical pigmentation score)", "setting": "tail of SKH:HR2 mice [2]; Example 2, 0.01% topical, after 5 weeks", "result": "virtually total"}, {"measurement": "depigmenting activity compared with other corticosteroids", "setting": "tail of SKH:HR2 mice [2]; Example 2, equivalent concentration of 0.01%, 5 weeks", "result": "greater depigmenting activity than desonide and than β-methasone valerate"}, {"measurement": "depigmenting activity (clinical pigmentation score)", "setting": "tail of SKH:HR2 mice [2]; Example 3, 0.005% topical", "result": "very significant depigmenting activity"}, {"measurement": "depigmenting activity compared with desonide", "setting": "tail of SKH:HR2 mice [2]; Example 3, equivalent concentration, throughout the study (4 weeks)", "result": "remains greater than that of desonide"}, {"measurement": "decrease in the Fontana-Masson-positive surface area in the living layers of the tail epidermis", "setting": "tail of SKH:HR2 mice [3]; 0.0005% topical", "result": 72, "unit": "%"}, {"measurement": "decrease in the Fontana-Masson-positive surface area in the living layers of the tail epidermis", "setting": "tail of SKH:HR2 mice [3]; 0.01% topical", "result": 85, "unit": "%"}]}
{"smiles": "C[C@]12CCC(=O)C=C1CC[C@@H]1[C@@H]2[C@@H](O)C[C@@]2(C)[C@H]1CC[C@]2(O)C(=O)CO", "note": "[hydrocortisone]", "values": [{"measurement": "depigmenting activity (clinical pigmentation score)", "setting": "tail of SKH:HR2 mice [2]; Example 1, 0.01% increased to 0.5% topical", "result": "only a very weak depigmenting activity"}, {"measurement": "change of Fontana-Masson-positive surface area", "setting": "tail of SKH:HR2 mice [3]; up to the concentration of 0.5% topical", "result": "does not significantly modify"}]}
{"smiles": "Oc1ccc(O)cc1", "note": "[hydroquinone]", "values": [{"measurement": "time necessary to obtain a significant result", "setting": "melasma [4]", "result": 12, "unit": "weeks"}]}
{"smiles": "CC1=C(/C=C/C(C)=C/C=C/C(C)=C/C(=O)O)C(C)(C)CCC1", "note": "[tretinoin]", "values": [{"measurement": "time necessary to obtain a significant result", "setting": "melasma [4]", "result": 40, "unit": "weeks"}]}
